In PubChem BioAssay AID326 (DTP/NCI, 2004):
Toxic doses and inconclusive results are not listed.

Test system: CD2F1 mice, P388/DHAQ leukemia ip, median survival T/C
Test: NCI In Vivo Anticancer Drug Screen. Data for tumor model P388 Leukemia resistant to Dihydroxy Anthracenedione; NSC 299195 (intraperitoneal) in CD2F1 (CDF1) mice
Settings: endpoint: median survival time, vehicle: saline, higher = longer survival
Procedure: The antitumor activity of compounds was measured in mice bearing transplantable tumors. Survival or tumor size were measured and the results are expressed as the measurement made in the treated group (T) divided by the measurement made in the vehicle treated control group (C). The tumor model used in this assay is P388 Leukemia resistant to Dihydroxy Anthracenedione; NSC 299195 (intraperitoneal) in CD2F1 (CDF1) mice

Structure (SMILES)	T/C (dose: 19.4 mg/kg/injection, schedule: Q04DX002 (ip))	T/C (dose: 20.7 mg/kg/injection, schedule: Q04DX002 (ip))	T/C (dose: 32.4 mg/kg/injection, schedule: Q04DX002 (ip))	T/C (dose: 34.6 mg/kg/injection, schedule: Q04DX002 (ip))	T/C (dose: 54.0 mg/kg/injection, schedule: Q04DX002 (ip))	T/C (dose: 57.6 mg/kg/injection, schedule: Q04DX002 (ip))	T/C (dose: 96.0 mg/kg/injection, schedule: Q04DX002 (ip))	T/C (dose: 160.0 mg/kg/injection, schedule: Q04DX002 (ip))	T/C (dose: 4.32 mg/kg/injection, schedule: Q04DX003 (ip))	T/C (dose: 12.0 mg/kg/injection, schedule: Q04DX003 (ip))
CC(=O)N(C)c1ccc(Nc2cc(C)[nH]c3ccc4ncnc4c23)cc1	98 % of control	98 % of control	94 % of control	91 % of control	116 % of control	94 % of control	108 % of control	98 % of control	–	–
CC[C@@]1(O)C[C@H](OC2CC(N(C)C)C(OC3CC(O)C(OC4CCC(=O)C(C)O4)C(C)O3)C(C)O2)c2c(cc3c(c2O)C(=O)c2c(O)cccc2C3=O)[C@H]1C(=O)OC (stereo not given in full)	–	–	–	–	–	–	–	–	120 % of control	196 % of control
